What was measured:
[1] = tested on: cognitively-normal wildtype rodents; conditions: cited from earlier work
euploid and Ts65Dn mice = assay: Pro-convulsant effects after pentylenetetrazol (45 mg/kg); format: in vivo; conditions: sub-convulsant dose 45 mg/kg i.p.
Experimental: For testing the pro-convulsant effects of α5IA, a sub-convulsant dose of pentylenetetrazole (45 mg/kg i.p.) that induces myoclonic convulsions in about 50% of mice was injected i.p. 20 min after injection of α5IA (50 mg/kg) or placebo.
The proconvulsant action of the α5IA was measured after injection of a subconvulsive dose of pentylenetetrazole. Mice were injected with either vehicle or the α5IA (50 mg/kg i.p) and 20 min later they received an intraperitoneal injection of 45 mg/kg of pentylenetetrazole. […] Six to 7 mice were used for each condition. The latency to the first myoclonic jerk episode and the convulsion grade were recorded during a 1200-s period of observation. Four grades were empirically determined: Grade 0: no effect; grade 1: tail up and curved; grade 2: reversed tail and convulsive shivers; grade 3: myoclonic convulsions.
We then tested the proconvulsant effect of α5IA by injecting it (50 mg/kg) 20 min before a sub-convulsant dose of pentylenetetrazol (45 mg/kg) that induces myoclonic convulsions in about 50% of mice.

Ts65Dn mice = conditions: mouse, in vivo; cited from earlier work
[2] = tested on: children with Down syndrome; conditions: 7 to 13 year-old children with Down syndrome; even at doses associated with adverse effects; cited from earlier work
[3] = in vivo; cited from earlier work

CCOC(=O)c1ncn2c1[C@@H]1CCCN1C(=O)c1cc(OC)ccc1-2 [L-655,708]
acquisition in the reference memory water maze test [1]: can facilitate acquisition

C1CCc2nnnn2CC1 [pentylenetetrazole]
acquisition in the reference memory water maze test [1]: can facilitate acquisition | mice with myoclonic convulsions (euploid and Ts65Dn mice): about 50 % of mice | cognition enhancement effect in treated mice compared to control non-treated mice (Ts65Dn mice): did not show a cognition enhancement effect

NC(=O)CN1CCCC1=O [piracetam]
cognitive and behavioural measures [2]: neither cognitive nor behavioural measures demonstrated improvement

COC(=O)c1cc2c(cn1)[nH]c1ccccc12 [β-CCM]
convulsant liability [3]: proconvulsant or convulsant | spatial learning in the Morris watermaze [3]: enhanced spatial learning
